What was measured:
Format in all cases: cell-based
SW480 colon cancer cells = assay: Cell viability assay (CellTiter-Blue); settings: Homo sapiens, 96 h, four days
How it was run: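 SW480 colon cancer cells (~2×10^3/well) exposed to 8-point 1:3 dilutions from 10 μM to 0.0045 μM for four days at 37 °C/5% CO2. Viability read by resazurin (CellTiter-Blue) fluorescence after ~3 h, Ex 560/Em 590 nm. EC50 from non-linear regression; percent inhibition at 10 μM given when EC50 >10 μM.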

[1] = tested on: primary human fibroblasts derived from IPF patients (LL29 cells); assay: Inhibition of fibrotic process, αSMA staining in TGF-β1 treated LL29 fibroblasts; settings: Fibroblast, 96 h, TGF-β1 20 ng/mL, 4 days
How it was run: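 IPF-patient LL29 lung fibroblasts in 1% FBS medium received compound (11-point, 1:2 dilution, 0.1% DMSO) plus TGF-β1 20 ng/mL, 4 days at 37 °C. Percent αSMA-positive cells among SYTOX-negative cells quantified by immunofluorescence imaging, normalized to TGF-β1/DMSO wells. EC50 by non-linear regression on triplicates; above 10 μM, % inhibition at 10 μM given.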

[2] = tested on: IL-6 (THP-1 human monocyte cell line); assay: IL-6 inhibition in LPS-stimulated THP-1 cells (HTRF); settings: LPS 500 ng/mL
How it was run: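 THP-1 cells, serum-reduced to 1% FBS for 24 h, preincubated 2 h at 37° C with compound (10-point, 1:3 series, 0.1% DMSO), then stimulated with 500 ng/mL LPS for 22 h. IL-6 quantified by HTRF 665/620 nm ratio, normalized to DMSO; EC50 by four-parameter fit, else percent inhibition at 10 μM.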

[3] = given for EC50 >10 μM, read-out: percent inhibition at 10 μM

With `Fc1ccc(-c2ccnc3[nH]c(-c4n[nH]c5ncc(-c6cncc(CN7CCCCC7)c6)cc45)cc23)cc1` [Compound 43, 3-(4-(4-Fluorophenyl)-1H-pyrrolo[2,3-b]pyridin-2-yl)-5-(5-(piperidin-1-ylmethyl)pyridin-3-yl)-1H-pyrazolo[3,4-b]pyridine] the EC50 (SW480 colon cancer cells) was greater than 10 µM, the inhibition at 10 µM (SW480 colon cancer cells; [3]) was 6.9% and the EC50 ([1]; % αSMA positive cells) was greater than 10 µM. The inhibition at 10 µM [1, 3] was 0%, the EC50 ([2]; 22 hours, IL6 HTRF) was greater than 10 µM and the inhibition at 10 µM [2, 3] was 36.7%.
